Source: the supplement of paper PMC8617591

What was measured:
[1] = tested on: Mycobacterium tuberculosis Erdman (autoluminescent); test: total FIC50 (Loewe) at 50% inhibition, three-drug combination (log2); higher = more antagonistic
Description: (§1)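 DiaMOND equipotent three-drug combination dose responses (10 doses, 1.5- or 2-fold spacing, centred on IC90) against autoluminescent M. tuberculosis Erdman in 8 in vitro models. Read-out is OD600, or luminescence for the intracellular and dormancy models, normalised to untreated wells. Hill-fit Einf, AUC25 and GRinf are potency metrics; FIC50 and FIC90 are total Loewe fractional inhibitory concentrations as log2 (negative = synergy).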

[2] = tested on: Mycobacterium tuberculosis Erdman (autoluminescent); test: total FIC90 (Loewe) at 90% inhibition, three-drug combination (log2); higher = more antagonistic
Description: as §1

[3] = tested on: Mycobacterium tuberculosis Erdman (autoluminescent); test: Einf, fitted maximum growth inhibition of three-drug combination (fraction); higher = stronger maximal inhibition
Description: as §1

[4] = tested on: Mycobacterium tuberculosis Erdman (autoluminescent); test: AUC25, normalised area under dose response up to IC25 (three-drug combination) (fraction (0-1)); higher = more potent at low dose
Description: as §1

[5] = tested on: Mycobacterium tuberculosis Erdman (autoluminescent); test: GRinf, maximum normalised growth rate inhibition (three-drug combination) (unitless (-1 to 1)); higher = less effect (negative = killing)
Description: as §1

CC(=O)NC[C@H]1CN(c2ccc(N3CCOCC3)c(F)c2)C(=O)O1 [linezolid] + CO[C@H]1/C=C/O[C@@]2(C)Oc3c(C)c(O)c4c(O)c(c(/C=N/N5CCN(C6CCCC6)CC5)c(O)c4c3C2=O)NC(=O)/C(C)=C\C=C\[C@H](C)[C@H](O)[C@@H](C)[C@@H](O)[C@@H](C)[C@H](OC(C)=O)[C@@H]1C [rifapentine] + CO[C@H]1/C=C/O[C@@]2(C)Oc3c(C)c(O)c4c(O)c(c(/C=N/N5CCN(C)CC5)c(O)c4c3C2=O)NC(=O)/C(C)=C\C=C\[C@H](C)[C@H](O)[C@@H](C)[C@@H](O)[C@@H](C)[C@H](OC(C)=O)[C@@H]1C [rifampicin]
Settings | AUC25, [4] | Einf, [3] | GRinf, [5] | total FIC50, [1] | total FIC90, [2]
in vitro model: acidic pH 5.7, time point: constant (~7 days, model-specific) | 0.0833 | 0.893 | -0.162 | 0.407 | –
in vitro model: acidic pH 5.7, time point: terminal (~4-5 doublings, model-specific) | 0.0709 | 0.979 | -0.204 | 0.327 | 0.0907
in vitro model: intracellular J774, time point: constant = terminal | – | 0.93 | -0.12 | – | -0.258

Settings | AUC25, [4] | Einf, [3] | GRinf, [5] | total FIC50, [1] | total FIC90, [2]
in vitro model: butyrate, time point: constant (~7 days, model-specific) | 0.0767 | 0.869 | 0.14 | 0.125 | –
in vitro model: butyrate, time point: terminal (~4-5 doublings, model-specific) | 0.0594 | 0.933 | 0.106 | 0.0289 | -0.462
in vitro model: cholesterol 0.05 mM, time point: constant (~7 days, model-specific) | 0.147 | 0.654 | -0.259 | 0.106 | –
in vitro model: cholesterol 0.05 mM, time point: terminal (~4-5 doublings, model-specific) | 0.127 | 0.909 | -0.305 | -0.0658 | 0.0643
in vitro model: cholesterol-high 0.2 mM, time point: constant (~7 days, model-specific) | 0.104 | 0.934 | -0.348 | 0.114 | 0.179
in vitro model: cholesterol-high 0.2 mM, time point: terminal (~4-5 doublings, model-specific) | 0.0979 | 1 | -0.881 | 0.344 | 0.213
in vitro model: dormancy (butyrate + nitrate, low O2), time point: constant (~7 days, model-specific) | 0.0711 | 0.884 | 0.158 | 0.564 | 0.837
in vitro model: dormancy (butyrate + nitrate, low O2), time point: terminal (~4-5 doublings, model-specific) | 0.0539 | 0.965 | -0.00168 | -0.00521 | 0.318
in vitro model: standard 7H9 glycerol, time point: constant = terminal | 0.0512 | 0.879 | 0.155 | 0.208 | –
in vitro model: valerate, time point: constant (~7 days, model-specific) | 0.0508 | 0.862 | 0.0506 | 0.124 | –
in vitro model: valerate, time point: terminal (~4-5 doublings, model-specific) | 0.029 | 0.933 | 0.0203 | 0.039 | -0.378

CC(=O)NC[C@H]1CN(c2ccc(N3CCOCC3)c(F)c2)C(=O)O1 [linezolid] + COc1c(N2C[C@@H]3CCCN[C@@H]3C2)c(F)cc2c(=O)c(C(=O)O)cn(C3CC3)c12 [moxifloxacin] + CO[C@H]1/C=C/O[C@@]2(C)Oc3c(C)c(O)c4c(O)c(c(/C=N/N5CCN(C6CCCC6)CC5)c(O)c4c3C2=O)NC(=O)/C(C)=C\C=C\[C@H](C)[C@H](O)[C@@H](C)[C@@H](O)[C@@H](C)[C@H](OC(C)=O)[C@@H]1C [rifapentine]
Settings | AUC25, [4] | Einf, [3] | GRinf, [5] | total FIC50, [1] | total FIC90, [2]
in vitro model: acidic pH 5.7, time point: constant (~7 days, model-specific) | 0.0572 | 0.8 | 0.0276 | 0.827 | –
in vitro model: acidic pH 5.7, time point: terminal (~4-5 doublings, model-specific) | 0.0558 | 0.976 | -0.0724 | 0.952 | 0.684
in vitro model: intracellular J774, time point: constant = terminal | – | 0.911 | -0.0811 | – | 0.0429

Settings | AUC25, [4] | Einf, [3] | GRinf, [5] | total FIC50, [1] | total FIC90, [2]
in vitro model: butyrate, time point: constant (~7 days, model-specific) | 0.0841 | 0.876 | 0.149 | 0.365 | 0.691
in vitro model: butyrate, time point: terminal (~4-5 doublings, model-specific) | 0.0527 | 0.929 | 0.0958 | 0.352 | 0.196
in vitro model: cholesterol 0.05 mM, time point: constant (~7 days, model-specific) | 0.157 | 0.694 | -0.35 | 0.586 | –
in vitro model: cholesterol 0.05 mM, time point: terminal (~4-5 doublings, model-specific) | 0.129 | 0.909 | -0.32 | 0.581 | -0.237
in vitro model: cholesterol-high 0.2 mM, time point: constant (~7 days, model-specific) | 0.11 | 0.913 | -0.639 | 0.553 | 0.386
in vitro model: cholesterol-high 0.2 mM, time point: terminal (~4-5 doublings, model-specific) | 0.113 | 1 | -0.938 | 0.377 | 0.836
in vitro model: dormancy (butyrate + nitrate, low O2), time point: constant (~7 days, model-specific) | 0.0602 | 0.862 | 0.223 | 1.04 | 0.925
in vitro model: dormancy (butyrate + nitrate, low O2), time point: terminal (~4-5 doublings, model-specific) | 0.0346 | 0.979 | -0.11 | 1.31 | 1.02
in vitro model: standard 7H9 glycerol, time point: constant = terminal | 0.0607 | 0.902 | 0.0317 | 0.709 | 0.569
in vitro model: valerate, time point: constant (~7 days, model-specific) | 0.109 | 0.834 | 0.129 | 0.0907 | –
in vitro model: valerate, time point: terminal (~4-5 doublings, model-specific) | 0.0452 | 0.914 | 0.0886 | 0.472 | 0.387

CC(=O)NC[C@H]1CN(c2ccc(N3CCOCC3)c(F)c2)C(=O)O1 [linezolid] + COc1c(N2C[C@@H]3CCCN[C@@H]3C2)c(F)cc2c(=O)c(C(=O)O)cn(C3CC3)c12 [moxifloxacin] + CO[C@H]1/C=C/O[C@@]2(C)Oc3c(C)c(O)c4c(O)c(c(/C=N/N5CCN(C)CC5)c(O)c4c3C2=O)NC(=O)/C(C)=C\C=C\[C@H](C)[C@H](O)[C@@H](C)[C@@H](O)[C@@H](C)[C@H](OC(C)=O)[C@@H]1C [rifampicin]
Settings | AUC25, [4] | Einf, [3] | GRinf, [5] | total FIC50, [1] | total FIC90, [2]
in vitro model: acidic pH 5.7, time point: constant (~7 days, model-specific) | 0.0527 | 0.811 | -0.0255 | 0.498 | –
in vitro model: acidic pH 5.7, time point: terminal (~4-5 doublings, model-specific) | 0.0717 | 0.984 | -0.147 | 0.628 | 0.503
in vitro model: intracellular J774, time point: constant = terminal | – | 0.919 | -0.103 | – | 0.656

Settings | AUC25, [4] | Einf, [3] | GRinf, [5] | total FIC50, [1] | total FIC90, [2]
in vitro model: butyrate, time point: constant (~7 days, model-specific) | 0.0848 | 0.857 | 0.177 | 0.137 | –
in vitro model: butyrate, time point: terminal (~4-5 doublings, model-specific) | 0.0684 | 0.929 | 0.128 | 0.112 | 0.0683
in vitro model: cholesterol 0.05 mM, time point: constant (~7 days, model-specific) | 0.156 | 0.709 | -0.119 | 0.272 | –
in vitro model: cholesterol 0.05 mM, time point: terminal (~4-5 doublings, model-specific) | 0.124 | 0.916 | -0.285 | 4.84 | -0.628
in vitro model: cholesterol-high 0.2 mM, time point: constant (~7 days, model-specific) | 0.0752 | 0.889 | -0.343 | 0.731 | -0.284
in vitro model: cholesterol-high 0.2 mM, time point: terminal (~4-5 doublings, model-specific) | 0.0984 | 1 | -0.901 | 0.947 | 0.931
in vitro model: dormancy (butyrate + nitrate, low O2), time point: constant (~7 days, model-specific) | 0.0613 | 0.873 | 0.239 | 1.14 | 0.815
in vitro model: dormancy (butyrate + nitrate, low O2), time point: terminal (~4-5 doublings, model-specific) | 0.0476 | 0.971 | -0.0219 | 0.897 | 0.88
in vitro model: standard 7H9 glycerol, time point: constant = terminal | 0.0568 | 0.839 | 0.261 | 0.691 | –
in vitro model: valerate, time point: constant (~7 days, model-specific) | 0.0669 | 0.803 | 0.0279 | 0.393 | –
in vitro model: valerate, time point: terminal (~4-5 doublings, model-specific) | 0.0324 | 0.928 | 0.0628 | 0.609 | 0.105

CC(=O)NC[C@H]1CN(c2ccc(N3CCOCC3)c(F)c2)C(=O)O1 [linezolid] + COc1c(N2C[C@@H]3CCCN[C@@H]3C2)c(F)cc2c(=O)c(C(=O)O)cn(C3CC3)c12 [moxifloxacin] + NC(=O)c1cnccn1 [pyrazinamide]
Settings | AUC25, [4] | Einf, [3] | GRinf, [5] | total FIC50, [1] | total FIC90, [2]
in vitro model: acidic pH 5.7, time point: constant (~7 days, model-specific) | 0.0593 | 0.734 | -0.345 | -0.252 | –
in vitro model: acidic pH 5.7, time point: terminal (~4-5 doublings, model-specific) | 0.0649 | 0.955 | -0.38 | 1.52 | -0.8
in vitro model: intracellular J774, time point: constant = terminal | – | 0.939 | -0.17 | – | 0.559

Settings | AUC25, [4] | Einf, [3] | GRinf, [5] | total FIC50, [1] | total FIC90, [2]
in vitro model: butyrate, time point: constant (~7 days, model-specific) | 0.108 | 0.891 | 0.0582 | 0.00706 | 2.34
in vitro model: butyrate, time point: terminal (~4-5 doublings, model-specific) | 0.0904 | 0.952 | 0.0307 | 0.0931 | 0.745
in vitro model: cholesterol 0.05 mM, time point: constant (~7 days, model-specific) | 0.145 | 0.704 | -0.234 | – | –
in vitro model: cholesterol 0.05 mM, time point: terminal (~4-5 doublings, model-specific) | 0.147 | 0.932 | -0.426 | 0.356 | –
in vitro model: cholesterol-high 0.2 mM, time point: constant (~7 days, model-specific) | 0.106 | 0.923 | -0.819 | 0.486 | –
in vitro model: cholesterol-high 0.2 mM, time point: terminal (~4-5 doublings, model-specific) | 0.115 | 1 | -1 | 0.334 | 0.717
in vitro model: dormancy (butyrate + nitrate, low O2), time point: constant (~7 days, model-specific) | 0.0721 | 0.855 | 0.269 | 0.651 | 0.461
in vitro model: dormancy (butyrate + nitrate, low O2), time point: terminal (~4-5 doublings, model-specific) | 0.0321 | 0.973 | -0.0525 | 0.786 | 0.354
in vitro model: standard 7H9 glycerol, time point: constant = terminal | 0.0843 | 0.962 | -0.271 | – | –
in vitro model: valerate, time point: constant (~7 days, model-specific) | 0.0976 | 0.87 | 0.12 | -0.0785 | –
in vitro model: valerate, time point: terminal (~4-5 doublings, model-specific) | 0.0603 | 0.921 | 0.0594 | 0.266 | 0.56
